# From PubChem BioAssay (NCI)
#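 Where inhibition never reached the appropriate level, the endpoint shown equals the highest concentration tested. Otherwise, values were interpolated linearly from a five-concentration, 48-hour dose response in 96-well plates. Here, GI50 denotes the concentration required for 50% inhibition of growth. TGI: concentration producing complete growth inhibition.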
# Assays:
# Assay in all cases: DTP human tumour cell line panel, 48 h
# HL-60(TB) leukemia = system: HL-60(TB) leukemia
# OVCAR-8 ovarian = system: OVCAR-8 ovarian
# COLO 205 colon = system: COLO 205 colon
# MDA-MB-231 breast = system: MDA-MB-231 breast
# NCI-H460 lung = system: NCI-H460 lung
# UO-31 renal = system: UO-31 renal
# OVCAR-3 ovarian = system: OVCAR-3 ovarian
# UACC-62 melanoma = system: UACC-62 melanoma
# HS 578T breast = system: HS 578T breast
# HT29 colon = system: HT29 colon
# PC-3 prostate = system: PC-3 prostate
# NCI/ADR-RES ovarian = system: NCI/ADR-RES ovarian
# SNB-19 CNS = system: SNB-19 CNS
# SK-MEL-2 melanoma = system: SK-MEL-2 melanoma
# MALME-3M melanoma = system: MALME-3M melanoma
# SW-620 colon = system: SW-620 colon
# NCI-H522 lung = system: NCI-H522 lung
# SR leukemia = system: SR leukemia
# CCRF-CEM leukemia = system: CCRF-CEM leukemia
# SF-539 CNS = system: SF-539 CNS
# HOP-92 NSCLC = system: HOP-92 NSCLC
# A549 NSCLC = system: A549 NSCLC
# SF-268 CNS = system: SF-268 CNS
# MDA-MB-468 breast = system: MDA-MB-468 breast
# SK-OV-3 ovarian = system: SK-OV-3 ovarian
# SK-MEL-5 melanoma = system: SK-MEL-5 melanoma
# TK-10 renal = system: TK-10 renal
# K-562 leukemia = system: K-562 leukemia
# U251 CNS = system: U251 CNS
# RPMI-8226 leukemia = system: RPMI-8226 leukemia
# SNB-75 CNS = system: SNB-75 CNS
# DU-145 prostate = system: DU-145 prostate
# RXF 393 renal = system: RXF 393 renal
# KM12 colon = system: KM12 colon
# M14 melanoma = system: M14 melanoma
# LOX IMVI melanoma = system: LOX IMVI melanoma
# OVCAR-5 ovarian = system: OVCAR-5 ovarian
# SK-MEL-28 melanoma = system: SK-MEL-28 melanoma
# HCT-15 colon = system: HCT-15 colon
# T-47D breast = system: T-47D breast
# 786-0 renal = system: 786-0 renal
# MCF7 breast = system: MCF7 breast
# CAKI-1 renal = system: CAKI-1 renal
# HOP-62 NSCLC = system: HOP-62 NSCLC
# ACHN renal = system: ACHN renal
# NCI-H23 lung = system: NCI-H23 lung
# NCI-H226 lung = system: NCI-H226 lung
# SN12C renal = system: SN12C renal
# SF-295 CNS = system: SF-295 CNS
# HCT-116 colon = system: HCT-116 colon
# EKVX NSCLC = system: EKVX NSCLC
# A498 renal = system: A498 renal
# UACC-257 melanoma = system: UACC-257 melanoma
# MDA-MB-435 = system: MDA-MB-435
# IGROV1 ovarian = system: IGROV1 ovarian
# BT-549 breast = system: BT-549 breast
# HCC-2998 colon = system: HCC-2998 colon
# MOLT-4 leukemia = system: MOLT-4 leukemia
# OVCAR-4 ovarian = system: OVCAR-4 ovarian
smiles,measurement,setting,value
Cn1ncc2c(N)nc(Oc3ccccc3-c3ccccc3)nc21,GI50,HL-60(TB) leukemia,3.93 µM
same,TGI,HL-60(TB) leukemia,30.5 µM
same,GI50,OVCAR-8 ovarian,13.1 µM
same,TGI,OVCAR-8 ovarian,65.1 µM
same,GI50,COLO 205 colon,7.05 µM
same,TGI,COLO 205 colon,> 100 µM
same,GI50,MDA-MB-231 breast,4.54 µM
same,TGI,MDA-MB-231 breast,> 100 µM
same,GI50,NCI-H460 lung,3.87 µM
same,TGI,NCI-H460 lung,> 100 µM
same,GI50,UO-31 renal,11.4 µM
same,TGI,UO-31 renal,> 100 µM
same,GI50,OVCAR-3 ovarian,6.61 µM
same,TGI,OVCAR-3 ovarian,> 100 µM
same,GI50,UACC-62 melanoma,4.1 µM
same,TGI,UACC-62 melanoma,36.7 µM
same,GI50,HS 578T breast,5.73 µM
same,TGI,HS 578T breast,41.4 µM
same,GI50,HT29 colon,3.4 µM
same,TGI,HT29 colon,34.6 µM
same,GI50,PC-3 prostate,13.3 µM
same,TGI,PC-3 prostate,> 100 µM
same,GI50,NCI/ADR-RES ovarian,3.26 µM
same,TGI,NCI/ADR-RES ovarian,17.5 µM
same,GI50,SNB-19 CNS,29.3 µM
same,TGI,SNB-19 CNS,> 100 µM
same,GI50,SK-MEL-2 melanoma,4.36 µM
same,TGI,SK-MEL-2 melanoma,> 100 µM
same,GI50,MALME-3M melanoma,4.3 µM
same,TGI,MALME-3M melanoma,> 100 µM
same,GI50,SW-620 colon,3.89 µM
same,TGI,SW-620 colon,> 100 µM
same,GI50,NCI-H522 lung,2.21 µM
same,TGI,NCI-H522 lung,7.03 µM
same,GI50,SR leukemia,2.91 µM
same,TGI,SR leukemia,> 100 µM
same,GI50,CCRF-CEM leukemia,3.73 µM
same,TGI,CCRF-CEM leukemia,46.3 µM
same,GI50,SF-539 CNS,7.68 µM
same,TGI,SF-539 CNS,> 100 µM
same,GI50,HOP-92 NSCLC,14.3 µM
same,TGI,HOP-92 NSCLC,> 100 µM
same,GI50,A549 NSCLC,6.74 µM
same,TGI,A549 NSCLC,> 100 µM
same,GI50,SF-268 CNS,23.7 µM
same,TGI,SF-268 CNS,> 100 µM
same,GI50,MDA-MB-468 breast,1.74 µM
same,TGI,MDA-MB-468 breast,4.92 µM
same,GI50,SK-OV-3 ovarian,30.3 µM
same,TGI,SK-OV-3 ovarian,> 100 µM
same,GI50,SK-MEL-5 melanoma,3.64 µM
same,TGI,SK-MEL-5 melanoma,18.2 µM
same,GI50,TK-10 renal,19.7 µM
same,TGI,TK-10 renal,> 100 µM
same,GI50,K-562 leukemia,3.44 µM
same,TGI,K-562 leukemia,> 100 µM
same,GI50,U251 CNS,4.77 µM
same,TGI,U251 CNS,> 100 µM
same,GI50,RPMI-8226 leukemia,3.94 µM
same,TGI,RPMI-8226 leukemia,27.4 µM
same,GI50,SNB-75 CNS,3.75 µM
same,TGI,SNB-75 CNS,34.2 µM
same,GI50,DU-145 prostate,32.3 µM
same,TGI,DU-145 prostate,> 100 µM
same,GI50,RXF 393 renal,10.3 µM
same,TGI,RXF 393 renal,47 µM
same,GI50,KM12 colon,4.82 µM
same,TGI,KM12 colon,> 100 µM
same,GI50,M14 melanoma,4.54 µM
same,TGI,M14 melanoma,> 100 µM
same,GI50,LOX IMVI melanoma,7.01 µM
same,TGI,LOX IMVI melanoma,> 100 µM
same,GI50,OVCAR-5 ovarian,6.5 µM
same,TGI,OVCAR-5 ovarian,> 100 µM
same,GI50,SK-MEL-28 melanoma,8.4 µM
same,TGI,SK-MEL-28 melanoma,> 100 µM
same,GI50,HCT-15 colon,3.79 µM
same,TGI,HCT-15 colon,> 100 µM
same,GI50,T-47D breast,4.91 µM
same,TGI,T-47D breast,> 100 µM
same,GI50,786-0 renal,26.4 µM
same,TGI,786-0 renal,> 100 µM
same,GI50,MCF7 breast,3.66 µM
same,TGI,MCF7 breast,> 100 µM
same,GI50,CAKI-1 renal,7.72 µM
same,TGI,CAKI-1 renal,> 100 µM
same,GI50,HOP-62 NSCLC,32 µM
same,TGI,HOP-62 NSCLC,> 100 µM
same,GI50,ACHN renal,20.6 µM
same,TGI,ACHN renal,> 100 µM
same,GI50,NCI-H23 lung,8.54 µM
same,TGI,NCI-H23 lung,> 100 µM
same,GI50,NCI-H226 lung,6.65 µM
same,TGI,NCI-H226 lung,97.2 µM
same,GI50,SN12C renal,7.43 µM
same,TGI,SN12C renal,> 100 µM
same,GI50,SF-295 CNS,6.11 µM
same,TGI,SF-295 CNS,> 100 µM
same,GI50,HCT-116 colon,4.53 µM
same,TGI,HCT-116 colon,> 100 µM
same,GI50,EKVX NSCLC,9.41 µM
same,TGI,EKVX NSCLC,> 100 µM
same,GI50,A498 renal,62.2 µM
same,TGI,A498 renal,> 100 µM
same,GI50,UACC-257 melanoma,8.36 µM
same,TGI,UACC-257 melanoma,> 100 µM
same,GI50,MDA-MB-435,1.99 µM
same,TGI,MDA-MB-435,5.44 µM
same,GI50,IGROV1 ovarian,8.02 µM
same,TGI,IGROV1 ovarian,> 100 µM
same,GI50,BT-549 breast,4.28 µM
same,TGI,BT-549 breast,37.6 µM
same,GI50,HCC-2998 colon,10.2 µM
same,TGI,HCC-2998 colon,> 100 µM
same,GI50,MOLT-4 leukemia,4.22 µM
same,TGI,MOLT-4 leukemia,34.7 µM
same,GI50,OVCAR-4 ovarian,19.3 µM
same,TGI,OVCAR-4 ovarian,> 100 µM
